Values after ≈ are worked out from the molar mass of the structure shown. Active and inactive are the calls of the source. The rule behind the calls is not given here. Residues, ends and D or L forms follow the SMILES beside them. *: point of attachment. Myristoyl = CCCCCCCCCCCCCC(=O)*; Lauroyl = CCCCCCCCCCCC(=O)*
Legend:
Staphylococcus aureus [1] = assay: Antibiofilm activity against Staphylococcus aureus ATCC 25923 at 0.5 to 8 uM after 24 hrs in presence of ciprofloxacin by checkerboard assay; format: functional, organism-based; settings: dose 0.5-8 µM
Staphylococcus aureus [2] = assay: Antimicrobial activity against Staphylococcus aureus ATCC 25923 after 18 hrs in presence of FeCl3 by broth microdilution method; format: functional
Staphylococcus aureus [3] = assay: Potentiation of EtBr-induced antimicrobial activity against ciprofloxacin-resistant Staphylococcus aureus ATCC 25923 at 1 to 2 uM after 18 hrs by broth microdilution method; format: functional, organism-based; settings: dose 1-2 µM
Staphylococcus aureus [4] = assay: Antimicrobial activity against Staphylococcus aureus ATCC 25923 after 18 hrs in presence of CaCl2 by broth microdilution method; format: functional
Staphylococcus aureus [5] = assay: Antibiofilm activity against Staphylococcus aureus ATCC 25923 assessed as biofilm thickness at 8 uM after 24 hrs using LIVE/LEAD (SYTO-9/PI) staining by confocal laser scanning microscopy based 3D image analysis (reference value: 55 micrometer); format: functional
Bacillus subtilis = assay: Antimicrobial activity against Bacillus subtilis ATCC 23857 after 18 hrs by broth microdilution method; format: functional
Staphylococcus aureus [6] = assay: Potentiation of ciprofloxacin-induced antimicrobial activity against ciprofloxacin-resistant Staphylococcus aureus ATCC 25923 assessed as ciprofloxacin MIC at 0.5 times MIC after 15 passages by broth microdilution method; format: functional
Cell membrane [7] = assay: Induction of membrane disruption in Staphylococcus aureus ATCC 25923 assessed as appearance of rough membrane at 2 to 4 times MIC measured after 2 to 4 hrs by SEM analysis; format: subcellular; settings: time 2-4 hrs
Staphylococcus aureus [8] = assay: Potentiation of ciprofloxacin-induced antimicrobial activity against ciprofloxacin-resistant Staphylococcus aureus ATCC 25923 at 1 uM after 18 hrs by broth microdilution method; format: functional, organism-based
Staphylococcus aureus [9] = assay: Antimicrobial activity against ciprofloxacin-resistant Staphylococcus aureus ATCC 25923 at 0.5 to 8 uM measured after 18 hrs in presence of ciprofloxacin by checkerboard assay; format: functional, organism-based; settings: dose 0.5-8 µM
Staphylococcus aureus [10] = assay: Antimicrobial activity against Staphylococcus aureus ATCC 25923 after 18 hrs in presence of 2.5% serum by broth microdilution method; format: functional
Staphylococcus aureus [11] = assay: Antimicrobial activity against Staphylococcus aureus ATCC 25923 after 18 hrs in presence of NaCl by broth microdilution method; format: functional
[12] = tested on: Staphylococcus epidermidis; assay: Potentiation of ciprofloxacin-induced antimicrobial activity against ciprofloxacin-resistant Staphylococcus epidermidis ATCC 12228 at 1 uM after 18 hrs by broth microdilution method; format: functional, organism-based
[13] = tested on: Staphylococcus epidermidis; assay: Antimicrobial activity against ciprofloxacin-resistant Staphylococcus epidermidis ATCC 12228 after 18 hrs in presence of polymyxin B by checkerboard assay; format: functional, organism-based
Staphylococcus aureus [14] = assay: Antimicrobial activity against ciprofloxacin-resistant Staphylococcus aureus ATCC 25923 after 18 hrs in presence of polymyxin B by checkerboard assay; format: functional, organism-based
[15] = tested on: Staphylococcus epidermidis; assay: Potentiation of ciprofloxacin-induced antimicrobial activity against ciprofloxacin-resistant Staphylococcus epidermidis ATCC 12228 assessed as change in ciprofloxacin MIC at 4 uM after 18 hrs by broth microdilution method relative to ciprofloxacin MIC; format: functional
Staphylococcus aureus [16] = assay: Potentiation of ciprofloxacin-induced antimicrobial activity against Staphylococcus aureus ATCC 25923 at 0.5 times MIC after 15 passages by broth microdilution method; format: functional, organism-based
Lipopolysaccharide (LPS) = assay: Binding affinity to LPS (unknown origin) assessed as bacterial killing at 2 times MIC preincubated for 1 hr followed by Staphylococcus aureus ATCC 25923 addition and measured after 2 hrs by colony counting method; settings: time 3.0 hrs
Cell membrane [17] = assay: Induction of membrane disruption in Staphylococcus aureus ATCC 25923 assessed as increase in non-uniform cell debris level at 4 times MIC measured after 2 to 4 hrs by SEM analysis; format: subcellular; settings: time 2-4 hrs
Staphylococcus aureus [18] = assay: Antimicrobial activity against Staphylococcus aureus ATCC 25923 after 18 hrs in presence of 5% serum by broth microdilution method; format: functional
Cell membrane [19] = assay: Induction of membrane disruption in Staphylococcus aureus ATCC 25923 assessed as PI-positive cells at 2 times MIC measured after 2 hrs by propidium iodide staining based flow cytometry relative to control
Staphylococcus aureus [20] = assay: Antimicrobial activity against methicillin-resistant Staphylococcus aureus 113 measured after 18 hrs in presence of polymyxin B by checkerboard assay; format: functional, organism-based
Staphylococcus aureus [21] = assay: Antibiofilm activity against Staphylococcus aureus ATCC 25923 at 0.5 to 8 uM after 24 hrs by crystal violet staining based assay; format: functional, organism-based; settings: dose 0.5-8 µM
Staphylococcus aureus [22] = assay: Antimicrobial activity against Staphylococcus aureus ATCC 25923 after 18 hrs in presence of MgCl2 by broth microdilution method; format: functional
Staphylococcus aureus [23] = assay: Antimicrobial activity against Staphylococcus aureus ATCC 25923 after 18 hrs in presence of ZnCl2 by broth microdilution method; format: functional
Staphylococcus aureus [24] = assay: Antimicrobial activity against ciprofloxacin-resistant Staphylococcus aureus ATCC 25923 at 0.5 times MIC after 15 passages by broth microdilution method; format: functional, organism-based
Staphylococcus aureus [25] = assay: Antimicrobial activity against Staphylococcus aureus ATCC 25923 at 0.5 times MIC after 15 passages by broth microdilution method; format: functional, organism-based
Cell membrane [26] = assay: Induction of membrane disruption in Staphylococcus aureus ATCC 25923 assessed as PI-positive cells at 4 times MIC measured after 2 hrs by propidium iodide staining based flow cytometry relative to control
Staphylococcus aureus [27] = assay: Ratio of MIC for antimicrobial activity against Staphylococcus aureus ATCC 25923 in presence of 5% serum to MIC for antimicrobial activity against Staphylococcus aureus ATCC 25923 in absence of serum; format: functional
Staphylococcus aureus [28] = assay: Antimicrobial activity against Staphylococcus aureus ATCC 25923 after 18 hrs in presence of NH4Cl by broth microdilution method; format: functional
Staphylococcus aureus [29] = assay: Antibiofilm activity against Staphylococcus aureus ATCC 25923 preformed biofilm at 32 to 64 uM after 24 hrs by LIVE/DEAD (SYTO-9/PI) staining based confocal laser scanning microscopic analysis; format: functional, organism-based; settings: dose 32-64 µM
Staphylococcus aureus [30] = assay: Antimicrobial activity against methicillin-resistant Staphylococcus aureus 75 after 18 hrs by broth microdilution method; format: functional
Staphylococcus aureus [31] = assay: Antimicrobial activity against ciprofloxacin-treated persistent form of Staphylococcus aureus ATCC 25923 assessed as bacterial killing at 8 times MIC preincubated up to 48 hrs followed by compound washout and subsequent replating on MHB agar by colony counting method; format: functional, organism-based; settings: time hrs <=48
Staphylococcus aureus [32] = assay: Antimicrobial activity against Staphylococcus aureus ATCC 25923 after 18 hrs in presence of KCl by broth microdilution method; format: functional
[33] = Therapeutic index, ratio of MHC for mouse RBC to geometric mean of peptide MIC for Staphylococcus epidermidis ATCC 12228; format: toxicity; settings: pooled result: one value given for 6 cell lines, strains, targets or settings, read-out: TI
Staphylococcus aureus [34] = assay: Antibiofilm activity against Staphylococcus aureus ATCC 25923 assessed as reduction in biofilm thickness after 24 hrs using LIVE/LEAD (SYTO-9/PI) staining by confocal laser scanning microscopy based 3D image analysis; format: functional, organism-based; settings: dose 4-8 µM
Staphylococcus aureus [35] = assay: Antimicrobial activity against Staphylococcus aureus ATCC 29213 after 18 hrs by broth microdilution method; format: functional
[36] = tested on: Staphylococcus epidermidis; assay: Antimicrobial activity against ciprofloxacin-resistant Staphylococcus epidermidis ATCC 12228 at 0.5 to 8 uM measured after 18 hrs in presence of ciprofloxacin by checkerboard assay; format: functional, organism-based; settings: dose 0.5-8 µM
[37] = tested on: Staphylococcus epidermidis; assay: Antimicrobial activity against Staphylococcus epidermidis ATCC 12228 after 18 hrs by broth microdilution method; format: functional

SMILES | Activity (Staphylococcus aureus [1]) | MIC (Staphylococcus aureus [2]) [µM] | Activity (Staphylococcus aureus [3]) | MIC (Staphylococcus aureus [4]) [µM] | Activity (Staphylococcus aureus [5]) [um] | MIC (Bacillus subtilis) [µM] | MIC (Staphylococcus aureus [6]) [µM] | Activity (Cell membrane [7]) | Activity (Staphylococcus aureus [8]) | Activity (Staphylococcus aureus [9]) | MIC (Staphylococcus aureus [10]) [µM] | MIC (Staphylococcus aureus [11]) [µM] | Activity [12] | Activity [13] | Activity (Staphylococcus aureus [14]) | fold change (FC) [15] | Activity (Staphylococcus aureus [16]) | Activity (Lipopolysaccharide (LPS)) | Activity (Cell membrane [17]) | MIC (Staphylococcus aureus [18]) [µM] | other results
CCCCCCCCCCCC(=O)N[C@@H](CCCNC(=N)N)C(=O)N[C@@H](CCCNC(=N)N)C(=O)N[C@@H](Cc1c[nH]c2ccccc12)C(N)=O (Lauroyl-Arg-Arg-Trp-NH2) | inactive | 4 | Active | 16 | 20 | 4 (≈ 2.79 µg/mL) | 8 | Active | inactive | Active | 32 | 16 | inactive | Active | Active | 2 | Active | Active | Active | 64 | Activity (Cell membrane [19]): 44.3%; Activity (Staphylococcus aureus [20]): Active; Activity (Staphylococcus aureus [21]): Active; MIC (Staphylococcus aureus [22]): 8 µM; MIC (Staphylococcus aureus [23]): 8 µM; Activity (Staphylococcus aureus [24]): Active; Activity (Staphylococcus aureus [25]): Active; Activity (Cell membrane [26]): Active; Ratio (Staphylococcus aureus [27]): 8; MIC (Staphylococcus aureus [28]): 4 µM; Activity (Staphylococcus aureus [29]): Active; MIC (Staphylococcus aureus [30]): 4 µM (≈ 2.79 µg/mL); Activity (Staphylococcus aureus [31]): Active; MIC (Staphylococcus aureus [32]): 8 µM; selectivity ratio [33]: 34.9; Activity (Staphylococcus aureus [34]): Dose-dependent effect; MIC (Staphylococcus aureus [35]): 4 µM (≈ 2.79 µg/mL); Activity [36]: Active; MIC [37]: 4 µM (≈ 2.79 µg/mL)
CCCCCCCCCCCCCC(=O)N[C@@H](CCCNC(=N)N)C(=O)N[C@@H](Cc1c[nH]c2ccccc12)C(=O)N[C@@H](Cc1c[nH]c2ccccc12)C(N)=O (Myristoyl-Arg-Trp-Trp-NH2) | inactive | 8 | Active | 8 | 16 | 4 (≈ 3.02 µg/mL) | 8 | Active | inactive | Active | 8 | 8 | inactive | Active | Active | 2 | Active | Active | Active | 16 | Activity (Cell membrane [19]): 74.8%; Activity (Staphylococcus aureus [20]): Active; Activity (Staphylococcus aureus [21]): Active; MIC (Staphylococcus aureus [22]): 4 µM; MIC (Staphylococcus aureus [23]): 8 µM; Activity (Staphylococcus aureus [24]): Active; Activity (Staphylococcus aureus [25]): Active; Activity (Cell membrane [26]): 88.9%; Ratio (Staphylococcus aureus [27]): 2; MIC (Staphylococcus aureus [28]): 4 µM; Activity (Staphylococcus aureus [29]): Active; MIC (Staphylococcus aureus [30]): 4 µM (≈ 3.02 µg/mL); Activity (Staphylococcus aureus [31]): Active; MIC (Staphylococcus aureus [32]): 8 µM; selectivity ratio [33]: 56.9; Activity (Staphylococcus aureus [34]): Dose-dependent effect; MIC (Staphylococcus aureus [35]): 8 µM (≈ 6.05 µg/mL); Activity [36]: Active; MIC [37]: 16 µM (≈ 12.1 µg/mL)
